Here are results for 22 compounds from article PMC12656849 (Viruses, 2025).

Data set [1] has as its target T1, MPXV H1 (Monkeypox virus, UniProt A0A7H0DN78). The experiment in a line: biochemical.
The test system of another data set is VARV H1. The settings on record: cited from earlier work.
For the next data set, the system named is MPXV. The settings on record: cited from earlier work.
The target in data set [2] is T1, MPXV H1. The class given is biochemical. The settings on record: read-out: Michaelis constant (Km); pH 6.5.
Another data set deals with mpox. The conditions noted are these: in vivo; cited from earlier work.

SMILES strings stand for the structures. Structures can show the parent of a compound that is named as a salt.

T1 sequence (A0A7H0DN78 whole entry, looked up): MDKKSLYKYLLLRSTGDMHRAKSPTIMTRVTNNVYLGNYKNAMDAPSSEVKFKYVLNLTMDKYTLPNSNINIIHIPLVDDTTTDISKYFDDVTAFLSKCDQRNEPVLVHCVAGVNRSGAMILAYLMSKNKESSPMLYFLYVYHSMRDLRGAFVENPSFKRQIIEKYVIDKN

For `CC(C)(C)C(=O)Nc1ccc2c(c1)C(=O)C(=O)c1ccccc1-2` [Compound 35, SF1670], inhibition against MPXV H1 [1] was half-maximal at 154 ± 12 nM (IC50).

As to `N#CSc1cc(SC#N)c(N)nc1N` [Compound 41, PR619], the “cytotoxicity (in words)” value in the data set with HeLa cells is reported as “particularly low cytotoxicity”. This compound also came in with an IC50 against MPXV H1 [1] of 176 ± 7 nM. As for `CC1(C)CCC2=C(O1)c1ccccc1C(=O)C2=O` [Compound 45, Beta-lapachone], in the data set with HeLa cells, the “cytotoxicity (in words)” value is reported as “particularly low cytotoxicity”. Moreover, 348 ± 17 nM corresponded to half-maximal inhibition on MPXV H1 [1] (IC50). The matching figures for `O=C1C=C(Cl)C(=O)c2ccccc21` [Compound 47, 2-Chloro-1,4-naphthoquinone]: “particularly low cytotoxicity” and 837 ± 56 nM. As for `Cl.Oc1cccc(O)n1` [Compound 57, 2,6-Dihydroxypyridine hydrochloride], in the data set on HeLa cells, the “cytotoxicity (in words)” value is given as “particularly low cytotoxicity”. Further, the IC50 against MPXV H1 [1] came to 911 ± 64 nM.

As for `O=C1C(=O)c2ncccc2-c2cccnc21` [Compound 59, Phanquinone], on MPXV H1 [1], 241 ± 7 nM corresponded to half-maximal inhibition (IC50). Consider `CN(C)CCNc1nc2cc(O)ccc2c2c1C(=O)c1ccccc1-2` [Compound 68, TAS-103 (dihydrochloride)], for which, in the data set with HeLa cells, the “cytotoxicity (in words)” value is “substantial cytotoxicity”. Moreover, on MPXV H1 [1], the IC50 was determined as 865 ± 16 nM.

For the compound `CC(=O)c1cc2c(o1)C(=O)c1ccccc1C2=O` [Compound 75, Napabucasin], the “cytotoxicity (in words)” value in the data set on HeLa cells was “substantial cytotoxicity”. This compound came in with an IC50 at MPXV H1 [1] of 957 ± 40 nM.

As to `CC(C)NC1=CC=CNC1N1CCN(C(=O)c2cc3cc(NS(C)(=O)=O)ccc3[nH]2)CC1` (stereo not shown) [Compound 88, Delavirdine (mesylate)], the “cytotoxicity (in words)” value with HeLa cells is reported as “particularly low cytotoxicity”. The compound also registered an IC50 at MPXV H1 [1] of 987 ± 48 nM. With `Cn1cccc1/C=C1\C(=O)NC(=O)c2ccccc21` [Compound 89, BYK204165], the “cytotoxicity (in words)” value in the data set on HeLa cells was “particularly low cytotoxicity”. This compound also came in with an IC50 on MPXV H1 [1] of 794 ± 46 nM. `Cc1coc2c1C(=O)C(=O)c1c-2ccc2c1CCCC2(C)C` [Compound 106, Tanshinone IIA]: on MPXV H1 [1], half-maximal inhibition (IC50) required 531 ± 19 nM.

Turning to `COCCn1c2c([n+](Cc3cnccn3)c1C)C(=O)c1ccccc1C2=O` [Compound 108, YM155], the “cytotoxicity (in words)” value with HeLa cells is “substantial cytotoxicity”. In addition, on MPXV H1 [1], the IC50 is 826 ± 65 nM. Taken in the same sequence, the figures for `CC1=CC(=O)c2c(O)cccc2C1=O` [Compound 109, Plumbagin] were “particularly low cytotoxicity” and 874 ± 24 nM. On to `Cc1c(S(=O)(=O)O)oc2c1C(=O)C(=O)c1c-2ccc2c1CCCC2(C)C` [Compound 111, Tanshinone IIA sulfonate sodium], for which, on MPXV H1 [1], half-maximal inhibition (IC50) required 287 ± 10 nM. Still for that read-out and setting: as for `COc1cc2c3c(c1OC)-c1ccccc1C[C@H]3N(C)CC2` [Compound 112, Nuciferine], the figure is 752 ± 9 nM. The same measure, in the same setting: the figure for `Nc1cc(N)c(N)cc1N` [Compound 118, 1,2,4,5-Benzenetetramine tetrahydrochloride] is 333 ± 30 nM; for `COc1ccc2c(c1OC)CC1c3c(cc4c(c3-2)OCO4)CCN1C` (stereo not shown) [Compound 122, Crebanine] it is 229 ± 21 nM. Take `COc1cc2c3c(cc4ccccc4c3c1OC)N(C)CC2` [Compound 123, Dehydronuciferine]: the “cytotoxicity (in words)” value in the data set on HeLa cells is listed as “particularly low cytotoxicity”. The compound further came in with an IC50 on MPXV H1 [1] of 356 ± 25 nM.

`CC(C)(c1ccc(NS(=O)(=O)C(F)(F)F)cc1)c1ccc(C(C)(C)c2ccc(NS(=O)(=O)C(F)(F)F)cc2)cc1` [PTP inhibitor IV]: the “potency of VARV H1 inhibition” value with VARV H1 was “low-micromolar potency”. Moreover, the IC50 against MPXV H1 [1] was 18900 nM. Consider `OC(c1cc(C(F)(F)F)nc2c(C(F)(F)F)cccc12)C1CCCCN1` (stereo not shown) [mefloquine], for which, in the data set on MPXV, the “inhibition of MPXV” value was “inhibit MPXV”. For `O=[N+]([O-])c1ccc(OP(=O)(O)O)cc1` [pNPP, p-nitrophenyl phosphate], the Km on MPXV H1 [2] came to 1500 µM. `O=C(NN1C(=O)[C@@H]2[C@@H]3C=C[C@@H]([C@H]4C[C@@H]34)[C@@H]2C1=O)c1ccc(C(F)(F)F)cc1` [tecovirimat]: the “mpox symptom duration compared with placebo” value with mpox is given as “did not shorten”.

Usually IC50 stands for the concentration that inhibits the measured activity by half. The low end stands for greater potency, the high end for weaker potency. By Km is commonly meant the substrate concentration at which the rate is half of its maximum.
